We go through one compound from patent US20220152100A1, “METHODS FOR CONTROLLED ACTIVATION OR ELIMINATION OF THERAPEUTIC CELLS” (Bellicum Pharmaceuticals, Inc., priority 2014, published 2022).

Each structure is given as a SMILES string. Several values for one entry are separate records, joined by “and”; a condition that tells them apart may be missing. Equal values may be shown once.

Assay [1] deals with MT-2. Put plainly: CID-induced apoptosis (annexin V) in transduced MT-2 cells. The assay is classed as cell-based, human. As to conditions: 8 hours.
In assay [2] the test system is EBV-specific and CMV-specific T cells. Put plainly: Pentamer analysis of virus-specific T cells after dimerizer. The format is cell-based, human. To be noted: 10 nM after 4 days reactivation with allogeneic PBMC.
Assay [3] has as its system differentiated MSCs. The experiment in a line: CID-induced apoptosis of differentiated MSC progeny (TUNEL, cell density). To be noted: adipocytic differentiated iCasp9-positive cells, 50 nM, 24 hours; from 584.
For assay [4], the system named is human CD3+/GFP+ T cells. The experiment in a line: SCID mouse-human xenograft: elimination of iCasp9M-transduced CTLs in tumors. The format is in vivo, NOD/SCID mice. To be noted: single dose 50 μg intraperitoneally, versus carrier, 3 days after. The protocol: Non-obese diabetic severe combined immunodeficient (NOD/SCID) mice, 6 to 8 weeks of age, were irradiated (250 rad) and injected subcutaneously in the right flank with 10×10^6 to 15×10^6 LCLs resuspended in Matrigel (BD Bioscience). Two weeks later mice bearing tumors that were approximately 0.5 cm in diameter were injected into the tail vein with a 1:1 mixture of nontransduced and iCasp9.I.GFPhigh-transduced EBV CTLs (total 15×10^6). At 4 to 6 hours prior and 3 days after CTL infusion, mice were injected intraperitoneally with recombinant hIL-2 (2000 U; Proleukin; Chiron). […] By FACS analysis, the number of GFP+ cells within the gated CD3^+ population was evaluated. […]
The function of iCasp9M also was evaluated in transduced EBV-CTLs in vivo. […] Three days after CID/carrier administration, tumors were analyzed for human CD3^+/GFP^+ cells. […]
The function of iCasp9M in vivo, was assayed. […] On day 3 after CTL administration, mice received either CID (50 μg AP20187; (black diamonds, n=6) or carrier only (black squares, n=5) and on day 6 the presence of human CD3+/GFP+ T cells in the tumors was analyzed. Human CD3+ T cells isolated from the tumors of a control group of mice that received only nontransduced CTLs (15×10^6 CTLs; n=4) were used as a negative control for the analysis of CD3+/GFP+ T cells within the tumors.

For assay [5], the system named is MSCs. Put plainly: CID-induced apoptosis of iCasp9-ΔCD19 transduced undifferentiated MSCs.

For the compound `CC[C@H](C(=O)N1CCCC[C@H]1C(=O)O[C@H](CCc1ccc(OC)c(OC)c1)c1cccc(OCC(=O)NCC(CNC(=O)COc2cccc([C@@H](CCc3ccc(OC)c(OC)c3)OC(=O)[C@@H]3CCCCN3C(=O)[C@@H](CC)c3cc(OC)c(OC)c(OC)c3)c2)CN(C)C)c1)c1cc(OC)c(OC)c(OC)c1` [AP20187], the “apoptotic cells (annexin-V)” value is 57.9%+/−11.9 in assay [1] (iCasp9M-transduced MT-2, 10 nM) and 19.3%+/−8.4 in assay [1] (iFas-transduced MT-2, 10 nM). Moreover, in assay [2], the “effect on virus-specific T cells (HLA pentamers, EBV and CMV)” value was “spares (and thereby enriches) viral reactive subpopulations”. Moreover, in assay [3], the cell density was less than 14 cells/mm2. The “reduction in the number of human CD3+/GFP+ T cells in tumors” value in assay [4] is greater than 99%. Moreover, the apoptosis index in assay [5] (iCasp9-negative MSCs, 50 nM, 24 hrs, listed as CID) was 20±7% and 19%. Moreover, in assay [5] (iCasp9-positive MSCs, 50 nM, 24 hrs), the apoptotic death stood at 93±1%. Also, the apoptotic cells entry in assay [5] (magnetically immunoselected iCasp9-CD19-positive MSCs) is “More than 95%”. The compound also registered an annexin positive cells in assay [5] (non-transduced control MSC (Control/CID), 50 nM) of 15%.
